Experimental data from patent EP4678638A1, “NEW E3 UBIQUITIN LIGASE LIGAND, PROTEIN DEGRADATION AGENT AND USE THEREOF” (priority 2023, dated 2024).

Legend:
[1] = target: T1, human Cereblon WT GST-tagged protein (Homo sapiens, UniProt Q96SW2); assay: CRBN binding, HTRF (CEREBLON BINDING kit); conditions: Table II-2, CRBN binding screening, HTRF
T1 construct: purchased CISBIO 64BDCRBNPEH
Outline: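 After 3 h at room temperature, emission at 665 and 620 nm was measured in a homogeneous time-resolved fluorescence format. Compounds competed with a Thalidomide-Re probe for GST-tagged wild-type human CRBN, which was labelled with a Eu anti-GST antibody.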

[2] = target: T2, RSK2 (Homo sapiens, UniProt P51812); assay: Western blot degradation of RSK2 (hPBMC); format: cell-based; conditions: Table D8
T2 construct: evaluate the effects of the compounds of the present disclosure on the expression of target proteins in cells; endogenous in cells; host or cells: hPBMC
Protocol: (§1) Conventional Western blot assay was performed to evaluate the effects of the compounds of the present disclosure on the expression of target proteins in cells.
(§2) (1) Cell Seeding and Protein Harvesting: The selected cells were processed according to the cell seeding procedure and protein harvesting procedure in Table III-2. Table III-2 Cell Seeding and Protein Harvesting Procedures
(§3) (2) To the collected supernatant, 5X SDS sample loading buffer was added, followed by denaturation at 95°C for 5 minutes. The denatured samples were then separated by SDS-PAGE electrophoresis on a polyacrylamide gel. Proteins were transferred to a nitrocellulose membrane (0.45 µm NC membrane), blocked with blocking buffer at room temperature for 1 hour, and subjected to antibody incubation and development procedures according to the antibody manufacturer's instructions (Cell Signaling Technology).
(§4) Half-Maximal Degradation Concentration value (the drug concentration required for degrading proteins by 50%, abbreviated as DC50) reads method: comparing the grayscale values of Western blot bands from drug-treated samples with those from blank DMSO-treated controls, and identifying the drug concentration range at which the grayscale value is half that of the DMSO-treated control bands.
(§5) DC50 values can be calculated using ImageJ software to measure grayscale values of Western blot bands from drug-treated samples. The concentration-response curve is fitted to estimate the drug concentration corresponding to half the grayscale value.
(§6) Target protein remaining (%) refers to the percentage of target protein remaining in hPBMC cells after treatment with protein degrader compounds.
(§7) Calculation method for target protein remaining (%): Use ImageJ software to measure grayscale values of Western blot bands from drug (protein degrader)-treated samples. The grayscale value of drug-treated bands is divided by that of internal control protein bands, and the resulting quotient is normalized to obtain the relative percentage of remaining target protein after protein degrader treatment.
(§8) Target protein degradation rate (%) = 100% - target protein remaining (%).

[3] = target: T3, RSK1 (Homo sapiens, UniProt Q15418); assay: Western blot degradation of RSK1 (hPBMC); format: cell-based; conditions: Table D8
T3 construct: evaluate the effects of the compounds of the present disclosure on the expression of target proteins in cells; endogenous in cells; host or cells: hPBMC
Protocol: as §1, §2, §3, §4, §5, §6, §7, §8

T2 sequence (P51812 whole entry): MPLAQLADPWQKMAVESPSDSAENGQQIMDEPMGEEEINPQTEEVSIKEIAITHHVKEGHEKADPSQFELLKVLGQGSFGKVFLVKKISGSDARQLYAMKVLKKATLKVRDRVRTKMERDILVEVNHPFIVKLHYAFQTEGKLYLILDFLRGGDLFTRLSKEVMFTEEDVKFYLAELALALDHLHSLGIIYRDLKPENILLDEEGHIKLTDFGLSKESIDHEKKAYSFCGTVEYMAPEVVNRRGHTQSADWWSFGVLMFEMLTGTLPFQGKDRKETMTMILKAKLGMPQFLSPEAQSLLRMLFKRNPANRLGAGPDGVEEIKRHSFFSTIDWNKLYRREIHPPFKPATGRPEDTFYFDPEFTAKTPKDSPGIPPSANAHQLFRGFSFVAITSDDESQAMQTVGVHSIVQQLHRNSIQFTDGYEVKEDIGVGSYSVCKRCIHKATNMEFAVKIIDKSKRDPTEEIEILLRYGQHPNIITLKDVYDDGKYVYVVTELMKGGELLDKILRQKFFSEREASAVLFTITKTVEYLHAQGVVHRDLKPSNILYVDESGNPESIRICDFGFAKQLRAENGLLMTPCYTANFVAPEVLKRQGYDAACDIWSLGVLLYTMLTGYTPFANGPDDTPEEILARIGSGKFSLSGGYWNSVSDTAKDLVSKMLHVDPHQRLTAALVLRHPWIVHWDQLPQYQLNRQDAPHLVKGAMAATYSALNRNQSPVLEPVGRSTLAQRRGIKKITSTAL
T3 sequence (Q15418 whole entry): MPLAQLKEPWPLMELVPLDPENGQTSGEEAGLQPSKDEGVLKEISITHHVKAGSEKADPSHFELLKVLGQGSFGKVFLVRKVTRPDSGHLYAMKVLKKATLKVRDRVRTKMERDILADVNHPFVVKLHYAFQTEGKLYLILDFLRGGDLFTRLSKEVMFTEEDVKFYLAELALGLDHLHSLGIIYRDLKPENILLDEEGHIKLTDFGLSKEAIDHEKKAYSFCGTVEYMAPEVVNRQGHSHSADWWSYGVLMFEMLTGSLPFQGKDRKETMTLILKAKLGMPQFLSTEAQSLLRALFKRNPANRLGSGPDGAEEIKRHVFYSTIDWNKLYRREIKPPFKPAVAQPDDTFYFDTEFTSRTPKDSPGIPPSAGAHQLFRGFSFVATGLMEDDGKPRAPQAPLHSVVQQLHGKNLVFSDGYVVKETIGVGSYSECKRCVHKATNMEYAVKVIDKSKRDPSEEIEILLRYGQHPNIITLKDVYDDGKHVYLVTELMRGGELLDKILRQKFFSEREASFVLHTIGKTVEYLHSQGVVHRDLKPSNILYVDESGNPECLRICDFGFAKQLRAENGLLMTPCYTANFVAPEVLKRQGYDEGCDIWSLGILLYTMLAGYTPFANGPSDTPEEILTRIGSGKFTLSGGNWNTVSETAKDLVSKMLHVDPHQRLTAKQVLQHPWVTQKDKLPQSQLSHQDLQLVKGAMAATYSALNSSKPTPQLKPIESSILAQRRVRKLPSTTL
T1 sequence (Q96SW2 whole entry): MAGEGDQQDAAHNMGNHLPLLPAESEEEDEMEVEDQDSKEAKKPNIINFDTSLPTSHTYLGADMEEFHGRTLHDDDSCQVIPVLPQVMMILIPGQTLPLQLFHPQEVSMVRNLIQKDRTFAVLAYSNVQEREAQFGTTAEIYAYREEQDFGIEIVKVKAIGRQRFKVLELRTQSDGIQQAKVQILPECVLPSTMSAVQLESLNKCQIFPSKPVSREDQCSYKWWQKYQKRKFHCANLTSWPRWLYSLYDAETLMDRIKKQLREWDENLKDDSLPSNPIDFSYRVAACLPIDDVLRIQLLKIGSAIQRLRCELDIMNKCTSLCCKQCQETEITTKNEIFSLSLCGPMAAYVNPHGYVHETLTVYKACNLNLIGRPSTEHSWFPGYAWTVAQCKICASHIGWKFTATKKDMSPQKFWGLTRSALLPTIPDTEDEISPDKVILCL

inhibition at 0.5 µM ([1]; at 0.5µM, read-out: Inhibition rate (%) at 0.5µM) [%] | inhibition at 2 µM ([1]; at 2 µM, read-out: Inhibition rate (%) at 2 µM) [%] | SMILES | Degradation of substrate protein RSK2 (substrate protein remaining %) [2] | Degradation of substrate protein RSK1 (substrate protein remaining %) [3]
30 to 40 | 53 to 60 | C[C@@H]1CNC(=O)c2cc3ccc(C(=O)Nc4cnn(Cc5ccc(N6CCC(N7CCN(Cc8cc(C9CCC(=O)NC9=O)cnc8F)CC7)CC6)cc5)c4)nc3n21 (stereo partly drawn) [GT-07960, (9R)-N-(1-(4-(4-(4-((5-(2,6-dioxopiperidin-3-yl)-2-fluoropyridin-3-yl)methyl)piperazin-1-yl)piperidin-1-yl)benzyl)-1H-pyrazol-4-yl)-9-methyl-6-oxo-6,7,8,9-tetrahydropyrido[3',2':4,5]pyrrolo[1,2-a]pyrazine-2-carboxamide] | B (B is defined as substrate protein remaining % > 80%) | A (A is defined as 0% ≤ substrate protein remaining % ≤ 80%)
 |  | C[C@@H]1CNC(=O)c2cc3ccc(C(=O)Nc4cnn(Cc5ccc(N6CCC(N(C)Cc7ccc(N8CCC(=O)NC8=O)cn7)CC6)cc5)c4)nc3n21 [GT-07940, (R)-N-(1-(4-(4-(((5-(2,4-dioxotetrahydropyrimidin-1(2H)-yl)pyridin-2-yl)methyl)(methyl)amino)piperidin-1-yl)benzyl)-1H-pyrazol-4-yl)-9-methyl-6-oxo-6,7,8,9-tetrahydropyrido[3',2':4,5]py rrolo[1,2-a]pyrazine-2-carboxamide] | A (A is defined as 0% ≤ substrate protein remaining % ≤ 80%) | A (A is defined as 0% ≤ substrate protein remaining % ≤ 80%)
 |  | C[C@@H]1CNC(=O)c2cc3ccc(C(=O)Nc4cnn(Cc5ccc(N6CCN(Cc7ccc(N8CCC(=O)NC8=O)nc7)CC6)cc5)c4)nc3n21 [GT-07930, (R)-N-(1-(4-(4-((6-(2,4-dioxotetrahydropyrimidin-1(2H)-yl)pyridin-3-yl)methyl)piperazin-1-yl)benzyl)-1H-pyrazol-4-yl)-9-methyl-6-oxo-6,7,8,9-tetrahydropyrido[3',2':4,5]py rrolo[1,2-a]pyrazine-2-carboxamide] | B (B is defined as substrate protein remaining % > 80%) | A (A is defined as 0% ≤ substrate protein remaining % ≤ 80%)
 |  | C[C@@H]1CNC(=O)c2cc3ccc(C(=O)Nc4cnn(Cc5ccc(N6CCC(N7CCN(Cc8cccc(NC9CCC(=O)NC9=O)c8)CC7)CC6)cc5)c4)nc3n21 (stereo partly drawn) [GT-07956, (9R)-N-(1-(4-(4-(4-(3-((2,6-dioxopiperidin-3-yl)amino)benzyl)piperazin-1-yl)piperidin-1-yl)benzyl)-1H-pyrazol-4-yl)-9-methyl-6-oxo-6,7,8,9-tetrahydropyrido[3',2':4,5]pyrrolo[1,2-a]pyrazine-2-carboxamide] | A (A is defined as 0% ≤ substrate protein remaining % ≤ 80%) | A (A is defined as 0% ≤ substrate protein remaining % ≤ 80%)
 |  | C[C@@H]1CNC(=O)c2cc3ccc(C(=O)Nc4cnn(Cc5ccc(N6CCN(Cc7cc(C8CCC(=O)NC8=O)cnc7F)CC6)cc5)c4)nc3n21 (stereo partly drawn) [GT-07932, (9R)-N-(1-(4-(4-((5-(2,6-dioxopiperidin-3-yl)-2-fluoropyridin-3-yl)methyl)piperazin-1-yl)benzyl)-1H-pyrazol-4-yl)-9-methyl-6-oxo-6,7,8,9-tetrahydropyrido[3',2':4,5]py rrolo[1,2-a]pyrazine-2-carboxamide] | B (B is defined as substrate protein remaining % > 80%) | A (A is defined as 0% ≤ substrate protein remaining % ≤ 80%)
 |  | C[C@@H]1CNC(=O)c2cc3ccc(C(=O)Nc4cnn(Cc5ccc(N6CCC(N(C)Cc7cccc(NC8CCC(=O)NC8=O)c7)CC6)cc5)c4)nc3n21 (stereo partly drawn) [GT-07942, (9R)-N-(1-(4-(4-((3-((2,6-dioxopiperidin-3-yl)amino)benzyl)(methyl)amino)piperidin-1-yl)benzyl)-1H-pyrazol-4-yl)-9-methyl-6-oxo-6,7,8,9-tetrahydropyrido[3',2':4,5]py rrolo[1,2-a]pyrazine-2-carboxamide] | A (A is defined as 0% ≤ substrate protein remaining % ≤ 80%) | A (A is defined as 0% ≤ substrate protein remaining % ≤ 80%)
 |  | C[C@@H]1CNC(=O)c2cc3ccc(C(=O)Nc4cnn(Cc5ccc(N6CCC(N(C)Cc7ccnc(C8CCC(=O)NC8=O)c7)CC6)cc5)c4)nc3n21 (stereo partly drawn) [GT-07947, (9R)-N-(1-(4-(4-(((2-(2,6-dioxopiperidin-3-yl)pyridin-4-yl)methyl)(methyl)amino)piperidin-1-yl)benzyl)-1H-pyrazol-4-yl)-9-methyl-6-oxo-6,7,8,9-tetrahydropyrido[3',2':4,5]py rrolo[1,2-a]pyrazine-2-carboxamide] | A (A is defined as 0% ≤ substrate protein remaining % ≤ 80%) | A (A is defined as 0% ≤ substrate protein remaining % ≤ 80%)
 |  | C[C@@H]1CNC(=O)c2cc3ccc(C(=O)Nc4cnn(Cc5ccc(N6CCN(Cc7ccnc(N8CCC(=O)NC8=O)c7)CC6)cc5)c4)nc3n21 [GT-07798, (R)-N-(1-(4-(4-((2-(2,4-dioxotetrahydropyrimidin-1(2H)-yl)pyridin-4-yl)methyl)piperazin-1-yl)benzyl)-1H-pyrazol-4-yl)-9-methyl-6-oxo-6,7,8,9-tetrahydropyrido[3',2':4,5]py rrolo[1,2-a]pyrazine-2-carboxamide] | A (A is defined as 0% ≤ substrate protein remaining % ≤ 80%) | A (A is defined as 0% ≤ substrate protein remaining % ≤ 80%)
 |  | C[C@@H]1CNC(=O)c2cc3ccc(C(=O)Nc4cnn(Cc5ccc(N6CCN(Cc7cncc(C8CCC(=O)NC8=O)c7)CC6)cc5)c4)nc3n21 (stereo partly drawn) [GT-07934, (9R)-N-(1-(4-(4-((5-(2,6-dioxopiperidin-3-yl)pyridin-3-yl)methyl)piperazin-1-yl)benzyl)-1H-pyrazol-4-yl)-9-methyl-6-oxo-6,7,8,9-tetrahydropyrido[3',2':4,5]py rrolo[1,2-a]pyrazine-2-carboxamide] | B (B is defined as substrate protein remaining % > 80%) | A (A is defined as 0% ≤ substrate protein remaining % ≤ 80%)
 |  | C[C@@H]1CNC(=O)c2cc3ccc(C(=O)Nc4cnn(Cc5ccc(N6CCC(N7CCN(Cc8ccnc(N9CCC(=O)NC9=O)c8)CC7)CC6)cc5)c4)nc3n21 [GT-07958, (R)-N-(1-(4-(4-(4-((2-(2,4-dioxotetrahydropyrimidin-1(2H)-yl)pyridin-4-yl)methyl)piperazin-1-yl)piperidin-1-yl)benzyl)-1H-pyrazol-4-yl)-9-methyl-6-oxo-6,7,8,9-tetrahydropyrido[3',2':4,5]pyrrolo[1,2-a]pyrazine-2-carboxamide] | A (A is defined as 0% ≤ substrate protein remaining % ≤ 80%) | A (A is defined as 0% ≤ substrate protein remaining % ≤ 80%)
